Counter-ions that a name gives are not always drawn.
Key:
[1] = system: TG3 immunoreactivity in OKA treated MSN1a cells; assay: inhibition of TG3 immunoreactivity in OKA treated MSN1a cells (ELISA); assay type: cell-based, human; conditions: for IC50: Homo sapiens, 1 μM OKA, 0-64 μM drug, 2 hrs at 37° C., TG3 antibody
Method: Therefore, the therapeutic activity of the compounds of the invention was assessed by the ability of these agents to affect the production of abnormally phosphorylated epitopes pertinent to the production of PHFs of AD, utilizing a human neuroblastoma cell line (MSN1a) in the presence of the protein phosphatsse inhibitor, okadaic acid (OKA).
This assay can thus be used to determine whether a drug is capable of preventing or intervening in AD by attenuating the production of abnormally phosphorylated paired helical filament epitopes associated with AD. To determine whether a drug is capable of preventing or intervening in AD activity, the MSN1a cells containing tau and associated proteins are treated with OKA capable of greatly increasing immnunoreactivity of the MSN1a cells with AD specific monoclonal antibodies. Then, either prior to or concomitantly with OKA treatment, a compound of the present invention is added to the culture. If the compound prevents the induction of the AD epitopes in the MSN1a cells treated with OKA, then it is said to have anti-AD activity. If the AD-specific antibodies are highly reactive with the neuroblastoma cells following OKA treatment in the presence of compound, then the compound is said to be ineffectual against AD.
The MSN1a human neuroblastoma line was subcloned from a population of MSN cells obtained from the laboratory of Dr. Peter Davies (Albert Einstein College of Medicine, New York, N.Y.). Cells were grown and maintained in flasks in RPMI 1640 medium, supplemented with 15% fetal calf serum, 100 U/ml penicillin, 100 U/ml Streptomycin, 0.5 ug/ml fungizone under 7.5% CO2 at 37° C.
Stock solutions of drugs were prepared by dissolving the anhydrous powders to final concentrations of either 10 or 20 mM in 50% aqueous or 100% dimethyl sulfoxide (DMSO), respectively. […]
MSN cells grown in 225 cm^2 flasks are removed from the incubator, their medium decanted and replaced with 50 ml pre-warmed KRH. […] The supernatants are discarded and the cell pellets are resuspended, the cells counted and diluted to a density of 2×10^4 cells/50 ml. […]

[2] = system: PHF epitopes in MSN1a cells (PHF-1 immunoreactivity); assay: PHF-1 immunoreactivity (western blot) in okadaic acid treated MSN1a cells; assay type: cell-based, human
Method: FIG. 3 is a western blot showing PHF-1 immunoreactivity in lysates from control and chlorpromazine treated MSN cells treated with okadaic acid.
These compounds are effective at micromolar concentrations, with increased potency being evident when cells are treated prior to the addition of okadaic acid. The effective concentrations appear to be in the range at which these drugs are present in the brain following chronic treatment of psychiatric patients (Svendsen, C N, Psychopharmacology, 90, 316-321, 1986).
To determine the effect of chlorpromazine on the paired helical filament epitopes associated with AD, MSN1a cells expressing paired helical filament epitopes were incubated with […] chlorpromazine (CPZ) or a 0.2% DMSO vehicle control for 2 hours at 37° C. The cells were isolated by centrifugation, boiled for 10 minutes and […] protein from the resulting heat stable supernatants were loaded per lane on an SDS-PAGE gel. The gel was electrophoretically transferred to nitrocellulose membrane and then immunostained with PHF-1. […] The use of the MSN1a cell culture model for screening of novel compounds for therapeutic activity in AD is, therefore, quite warranted.

[3] = system: PHF epitope levels in frontal (Brodman Area 10) and temporal (Brodman Area 38) brain tissue; assay: ALZ-EIA of PHF (ADAP) levels in post-mortem brain tissue of patients chronically treated with chlorpromazine; assay type: in vivo, human; conditions: chronic treatment; frontal and temporal tissue at autopsy; vs normal controls and AD (FIGS. 4A, 4B)
Method: FIG. 4A is a chart showing relative ADAP concentrations in Brodman Area 10 in Alzheimer's Disease patients, normal controls and patients treated with chlorpromazine (Rx).
FIG. 4B is a chart showing relative ADAP concentrations in Brodman Area 38 in Alzheimer's Disease patients, normal controls and patients treated with chlorpromazine (Rx).
Frontal and cortical brain tissue specimens obtained at autopsy from patients chronically treated with chlorpromazine were analyzed using the ALZ-EIA method previously described (Ghanbari, H A, et al, JAMA, 263, 2907, 1990). The results are shown in FIGS. 4A and 4B frontal (Broadman area 10) and temporal (Broadman area 38) regions, respectively. The brain tissue (post-mortem) from approximately the same number of (age matched) normal controls and Alzheimer's Disease patients were also analyzed and are presented in these figures as negative and positive controls (for normal and AD, respectively).

[4] = system: PHF-1 and TG3 epitopes in MSN1a cells; assay: generation of Alzheimer epitopes (PHF-1 and TG3) in MSN1a cells by okadaic acid; assay type: cell-based, human
Method: Conditions were established which led to hyperphosphorylation of the proteins known to be involved in PHF formation. Using monoclonal antibodies PHF-1 and TG3 generated to human PHF preparations, the effects of a variety of manipulations of the phosphorylation state of these proteins were tested. These tests required that most of the abnormal epitopes recognized by these monoclonal antibodies in the human Alzheimer brain should be generated in the MSN1a cells. […] These epitopes are either absent or present at a very low level in untreated MSN1a cells.
Shown in FIG. 2A are bar graphs (percent of AD) of the ELISA immunoreactivity of brain preparations (AD or normal) to either PHF-1 or TG3. Shown in FIG. 2B are bar graphs (percent of MSN+) of the ELISA immunoreactivity of MSN1a cell preparations (minus or plus okadaic acid) to either PHF-1 or TG3. The MSN1a cell preparations plus vs minus okadaic acid closely parallel the AD vs nomal brain preparations. […] The cell culture system according to the invention in which epitopes characteristic of PHF can be readily generated and subsequently recognized by the specific Alzheimer brain specific antibodies provides an assay suitable for screening compounds for their ability to block the production of these phosphorylated epitopes.

## O=C(CCN1CCN(C(=O)c2cccc(F)c2F)CC1)c1ccc([N+](=O)[O-])cc1 [Example 63, 1-(p-Nitrophenyl)-3-[4'-(2",3"-difluorobenzoyl)-1'-piperazinyl]-1-propanonedlhydrochlorde]
[1]
  IC50: 7.3 µM

## CN(C)CCCN1c2ccccc2Sc2ccc(Cl)cc21 [Chlorpromazine, chlorpromazine]
[2]; 100 mM chlorpromazine, 2 hours at 37° C., PHF-1 immunostain
  production of paired helical filament epitopes by the MSN1a cells: greatly decreased the production of paired helical filament epitopes
[2]; MSN1a cells treated with okadaic acid, Alzheimer's Disease specific antibodies (cf. FIG. 3)
  inhibition of the expression of PHF epitopes: markedly inhibit the expression of PHF epitopes
[3]
  PHF epitope levels in brain of chlorpromazine treated patients: low PHF epitope levels similar to normal controls
[1]; MSN1a cell culture model, TG3
  inhibition of the production of aberrantly phosphorylated epitopes: effective in inhibiting the production of these aberrant phosphorylated epitopes

## C=C1[C@@H](O)[C@@H]2O[C@]3(CC[C@H](/C=C/[C@@H](C)[C@@H]4CC(C)=C[C@@]5(O[C@H](C[C@@](C)(O)C(=O)O)CC[C@H]5O)O4)O3)CC[C@H]2O[C@@H]1[C@@H](O)C[C@H](C)[C@H]1O[C@@]2(CCCCO2)CC[C@H]1C [okadaic acid]
[4]
  generation of the epitopes associated with Alzheimer brain specific monoclonal antibodies: found to generate the epitopes

## CSc1ccc(C(=O)CCN2CCN(Cc3ccccc3)CC2)cc1 [Example 14, 1-(p-Methylthiophenyl)-3-(4'-benzyl-1'-piperazinyl)-1-propanone dihydrochloride]
[1]
  IC50: 5.8 µM
